Active and inactive are the calls of the source. The rule behind the calls is not given here.
Legend:
M14 = test: Growth inhibition of human M14 cells at 10 uM by sulforhodamine B assay; type: functional, cell-based
A549 [1] = test: Cell cycle arrest in human A549 cells assessed as accumulation at sub-G1 phase at 10 uM after 48 hrs using propidium iodide staining by flow cytometer analysis (reference value: 0.96%); type: functional
SW-620 = test: Growth inhibition of human SW620 cells at 10 uM by sulforhodamine B assay; type: functional, cell-based
786-0 = test: Growth inhibition of human 786-0 cells at 10 uM by sulforhodamine B assay; type: functional, cell-based
OVCAR-5 = test: Growth inhibition of human OVCAR5 cells at 10 uM by sulforhodamine B assay; type: functional, cell-based
HOP-62 = test: Growth inhibition of human HOP62 cells at 10 uM by sulforhodamine B assay; type: functional, cell-based
A549 [2] = test: Cell cycle arrest in human A549 cells assessed as accumulation at S phase at 5 uM after 48 hrs using propidium iodide staining by flow cytometer analysis (reference value: 6.67%); type: functional
MDA-MB-231 = test: Growth inhibition of human MDA-MB-231 cells at 10 uM by sulforhodamine B assay; type: functional, cell-based
A498 = test: Growth inhibition of human A498 cells at 10 uM by sulforhodamine B assay; type: functional, cell-based
NCI-H322M = test: Growth inhibition of human NCI-H322M cells at 10 uM by sulforhodamine B assay; type: functional, cell-based
SF-268 = test: Growth inhibition of human SF268 cells at 10 uM by sulforhodamine B assay; type: functional, cell-based
SF-539 = test: Growth inhibition of human SF539 cells at 10 uM by sulforhodamine B assay; type: functional, cell-based
SR = test: Growth inhibition of human SR cells at 10 uM by sulforhodamine B assay; type: functional, cell-based
NCI-H23 = test: Growth inhibition of human NCI-H23 cells at 10 uM by sulforhodamine B assay; type: functional, cell-based
CCRF-CEM = test: Growth inhibition of human CCRF-CEM cells at 10 uM by sulforhodamine B assay; type: functional, cell-based
SK-MEL-5 = test: Growth inhibition of human SK-MEL-5 cells at 10 uM by sulforhodamine B assay; type: functional, cell-based
A549 [3] = test: Cell cycle arrest in human A549 cells assessed as accumulation at G2/M phase at 10 uM after 48 hrs using propidium iodide staining by flow cytometer analysis (reference value: 13.02%); type: functional
HCT-15 = test: Growth inhibition of human HCT15 cells at 10 uM by sulforhodamine B assay; type: functional, cell-based
OVCAR-4 = test: Growth inhibition of human OVCAR4 cells at 10 uM by sulforhodamine B assay; type: functional, cell-based
NCI-H460 = test: Growth inhibition of human NCI-H460 cells at 10 uM by sulforhodamine B assay; type: functional, cell-based
TK-10 = test: Growth inhibition of human TK10 cells at 10 uM by sulforhodamine B assay; type: functional, cell-based
NCI-H226 = test: Growth inhibition of human NCI-H226 cells at 10 uM by sulforhodamine B assay; type: functional, cell-based
A549 [4] = test: Inhibition of colony formation in human A549 cells assessed as change in colony morphology after 14 days using crystal violet staining by soft agar assay; type: functional, cell-based
A549 [5] = test: Inhibition of cell migration in human A549 cells assessed as cells migrating into scratch area after 24 hrs by wound healing assay; type: functional, cell-based
Hs-578T = test: Growth inhibition of human Hs 578T cells at 10 uM by sulforhodamine B assay; type: functional, cell-based
A549 [6] = test: Cytotoxicity against human A549 cells assessed as decrease in cell viability at 10 uM after 24 hrs by MTT assay relative to control; type: functional
HCT-116 = test: Growth inhibition of human HCT116 cells at 10 uM by sulforhodamine B assay; type: functional, cell-based
A549 [7] = test: Cell cycle arrest in human A549 cells assessed as accumulation at G0/G1 phase at 10 uM after 48 hrs using propidium iodide staining by flow cytometer analysis (reference value: 79.34%); type: functional
SK-OV-3 = test: Growth inhibition of human SKOV3 cells at 10 uM by sulforhodamine B assay; type: functional, cell-based
UACC-62 = test: Growth inhibition of human UACC62 cells at 10 uM by sulforhodamine B assay; type: functional, cell-based
IGROV-1 = test: Growth inhibition of human IGROV1 cells at 10 uM by sulforhodamine B assay; type: functional, cell-based
K562 = test: Growth inhibition of human K562 cells at 10 uM by sulforhodamine B assay; type: functional, cell-based
OVCAR-8 = test: Growth inhibition of human OVCAR8 cells at 10 uM by sulforhodamine B assay; type: functional, cell-based
HL-60(TB) = test: Growth inhibition of human HL-60(TB) cells at 10 uM by sulforhodamine B assay; type: functional, cell-based
CAKI-1 = test: Growth inhibition of human Caki1 cells at 10 uM by sulforhodamine B assay; type: functional, cell-based
A549 [8] = test: Cell cycle arrest in human A549 cells assessed as accumulation at sub-G1 phase at 5 uM after 48 hrs using propidium iodide staining by flow cytometer analysis (reference value: 0.96%); type: functional
SN12C = test: Growth inhibition of human SN12C cells at 10 uM by sulforhodamine B assay; type: functional, cell-based
Malme-3M = test: Growth inhibition of human MALME-3M cells at 10 uM by sulforhodamine B assay; type: functional, cell-based
BT-549 = test: Growth inhibition of human BT549 cells at 10 uM by sulforhodamine B assay; type: functional, cell-based
RPMI-8226 = test: Growth inhibition of human RPMI8226 cells at 10 uM by sulforhodamine B assay; type: functional, cell-based
KM12 = test: Growth inhibition of human KM12 cells at 10 uM by sulforhodamine B assay; type: functional, cell-based
SNB-75 = test: Growth inhibition of human SNB75 cells at 10 uM by sulforhodamine B assay; type: functional, cell-based
UO-31 = test: Growth inhibition of human UO31 cells at 10 uM by sulforhodamine B assay; type: functional, cell-based
UACC-257 = test: Growth inhibition of human UACC257 cells at 10 uM by sulforhodamine B assay; type: functional, cell-based
A549 [9] = test: Cell cycle arrest in human A549 cells assessed as accumulation at S phase at 10 uM after 48 hrs using propidium iodide staining by flow cytometer analysis (reference value: 6.67%); type: functional
A549 [10] = test: Induction of cellular senescence in human A549 cells assessed as increase of endogenous level of beta-galactosidase by […]/X-gal staining; type: functional, cell-based
SNB-19 = test: Growth inhibition of human SNB19 cells at 10 uM by sulforhodamine B assay; type: functional, cell-based
A549 [11] = test: Cell cycle arrest in human A549 cells assessed as accumulation at G2/M phase at 5 uM after 48 hrs using propidium iodide staining by flow cytometer analysis (reference value: 13.02%); type: functional
A549 [12] = test: Cytotoxicity against human A549 cells assessed as decrease in cell viability up to 72 hrs by MTT assay; type: functional, cell-based
RXF 393 = test: Growth inhibition of human RXF393 cells at 10 uM by sulforhodamine B assay; type: functional, cell-based

SMILES: COc1ccc(-c2nc(-c3ccccn3)c(-c3ccccn3)n2CC(C)C)cc1OC1CCCC1
- growth inhibition (GI) (M14): Active
- Activity (A549 [1]): 7.63%
- growth inhibition (GI) (SW-620): Active
- growth inhibition (GI) (786-0): Active
- growth inhibition (GI) (OVCAR-5): Active
- growth inhibition (GI) (HOP-62): Active
- Activity (A549 [2]): 3.47%
- growth inhibition (GI) (MDA-MB-231): Active
- growth inhibition (GI) (A498): Active
- growth inhibition (GI) (NCI-H322M): Active
- growth inhibition (GI) (SF-268): Active
- growth inhibition (GI) (SF-539): Active
- growth inhibition (GI) (SR): Active
- growth inhibition (GI) (NCI-H23): Active
- growth inhibition (GI) (CCRF-CEM): Active
- growth inhibition (GI) (SK-MEL-5): Active
- Activity (A549 [3]): 6.73%
- growth inhibition (GI) (HCT-15): Active
- growth inhibition (GI) (OVCAR-4): Active
- growth inhibition (GI) (NCI-H460): Active
- growth inhibition (GI) (TK-10): Active
- growth inhibition (GI) (NCI-H226): Active
- inhibition (A549 [4]): Active
- inhibition (A549 [5]): Dose-dependent effect
- growth inhibition (GI) (Hs-578T): Active
- fold change (FC) (A549 [6]): 2
- growth inhibition (GI) (HCT-116): Active
- Activity (A549 [7]): 75.7%
- growth inhibition (GI) (SK-OV-3): Active
- growth inhibition (GI) (UACC-62): Active
- growth inhibition (GI) (IGROV-1): Active
- growth inhibition (GI) (K562): Active
- growth inhibition (GI) (OVCAR-8): Active
- growth inhibition (GI) (HL-60(TB)): Active
- growth inhibition (GI) (CAKI-1): Active
- Activity (A549 [8]): 2.49%
- growth inhibition (GI) (SN12C): Active
- growth inhibition (GI) (Malme-3M): Active
- growth inhibition (GI) (BT-549): Active
- growth inhibition (GI) (RPMI-8226): Active
- growth inhibition (GI) (KM12): Active
- growth inhibition (GI) (SNB-75): Active
- growth inhibition (GI) (UO-31): Active
- growth inhibition (GI) (UACC-257): Active
- Activity (A549 [9]): 9.95%
- Activity (A549 [10]): Dose-dependent effect
- growth inhibition (GI) (SNB-19): Active
- Activity (A549 [11]): 4.65%
- Activity (A549 [12]): Dose-dependent effect
- growth inhibition (GI) (RXF 393): Active
